Patent US9821000B2, “Compounds, compositions and corresponding uses for preventing and/or treating of dyslipidemia” (CENTRE NATIONAL DE LA RECHERCHE SCIENTIFIQUE (CNRS), priority 2013, dated 2017)

System: BRIN-BD11 pancreatic β-cells
Experiment: Cell viability test (propidium iodide, flow cytometry) of pancreatic β-cells lipo-intoxicated by palmitic acid
Format: cell-based, rat
Conditions: BRIN-BD11, palmitic acid 200 μM, growing concentrations of compound
Description: The BRIN-BD11 pancreatic β-cells were cultivated in controlled conditions or in the presence of an exogenous source of saturated fatty acids (palmitic acid 200 μM), as described by Dhayal& Morgan (2011) in order to generate conditions of lipotoxicity with or without addition of OAG or LPA.
FIG. 7A—The proportion of dead cells was estimated in the absence (Ctrl) or in the presence of palmitic acid (Palm), for growing concentrations of OAG and LPA.
The lipidic species are prepared in ethanol and then complexed with bovine serum albumen (BSA initially devoid of fatty acids) by incubation for one hour at 37° C. […]
The pancreatic β-cell cell line (BRIN-BD11) of rats is cultivated in an RPMI-1640 complete medium containing glucose at 11 mM and supplemented with 10% (v/v) of fetal calf serum (FCS), 2 mM of L-glutamine, 100 U/mL of penicillin and 100 μg/mL of streptomycin. […] In the case of the controlled conditions, identical quantities of BSA and ethanol were then used. […] After incubation at 10 minutes on ice, the samples thus obtained are analyzed by cytometry in flux. A Beckman Coulter EPICS XL MCL is used for quantification, an FL3 channel serves to detect emissions from PI interposed in the DNA and the analysis is done by means of the software EXPO32 ADC (Applied Cytometry Systems, V 1.1 build 207).

SMILES: CCCCCCCC/C=C\CCCCCCCC(=O)OC[C@@H](O)COP(=O)(O)O [LPA, 1-oleoyl-sn-glycerol-3-phosphate]
- apoptosis (proportion of dead cells) of pancreatic β-cells in the presence of saturated fatty acids: prevent apoptosis

SMILES: CCCCCCCC/C=C\CCCCCCCC(=O)OC[C@H](CO)OC(C)=O [OAG, 1-oleoyl-2-acetyl-sn-glycerol]
- apoptosis (proportion of dead cells) of pancreatic β-cells in the presence of saturated fatty acids: prevent apoptosis
